Experimental data as given in patent US20240343699A1, “DERIVATIVES OF SUBSTITUTED MORPHOLINES AND USES THEREOF” (Supernus Pharmaceuticals, Inc., priority 2023, published 2024).

How the values were obtained:
[1] = Metabolic stability in rat liver S9; format: in vitro ADME, Sprague Dawley rat; settings: 1 μM in SD Rat liver S9 fractions; for half-life at 1 μM / microsomal CLint at 1 μM: Sprague-Dawley, pH 7.2; for microsomal CLint at 1 μM: read-out: CLint(mic.)
Procedure: Incubation Buffer (PBK): 50 mM potassium phosphate buffer was prepared from 1 M potassium phosphate buffer, pH 7.2. […] The dilution of […] was prepared by 90% methanol/10% DMSO, then 10 μM working solutions were prepared by diluting the 0.1 mM intermediates with 50 mM PBK. […] Prior to use, the stock solutions were brought to room temperature and thoroughly mixed. […] Cofactors Solutions: the mixture of cofactors solution was made at 10 mM of NADPH and 10 mM of UDPGA in PBK buffer.
(§1) The incubation was carried out in 96-well plates. The liver S9 working solutions were added to 96-well plates (80 μL/well) in duplicate. […] Reaction was initiated by adding cofactor mixture 10 μL/well. The plates were incubated at 37° C. in a water bath with shaking. […] The final organic solvent content in the incubation was ≤1%.
At specified time points, i.e., 5, 10, 20, 30 and 60 minutes, NCF60 (without adding NADPH (Nicotinamide-adenine dinucleotide phosphate, reduced form) and UDPGA (Uridine 5′-diphosphoglucuronic acid trisodium salt) replaced with PBK buffer reaction was stopped by adding three volumes of stop solution. The time zero (To) samples were prepared by adding three volumes of stop solution to liver S9 samples, followed by addition of test article or control, and cofactor mixture solution 10 μL/well.
Subsequently, 100 μL of supernatant.
Positive controls: 7-ethoxycoumarin and 7-hydroxycoumarin.

[2] = Enzyme and uptake assays; format: biochemical; settings: human recombinant; [3H]NE incorporation into cells; read-out: IC50, Norepinephrine transporter uptake (h)
Procedure: A study was conducted to test 5 compounds in cellular and nuclear receptor functional and enzyme and uptake assays.
The results are expressed as a percent of control specific activity
and as a percent inhibition of control specific activity
The IC50 values (concentration causing a half-maximal inhibition of control specific activity), EC50 values (concentration producing a half-maximal increase in control basal activity), and Hill coefficients (nH) were determined by non-linear regression analysis of the inhibition/concentration-response curves generated with mean replicate values using Hill equation curve fitting
where Y=specific activity, A=left asymptote of the curve, D=right asymptote of the curve, C=compound concentration, C50=IC50 or EC50, and nH=slope factor. This analysis was performed using software developed at Cerep (Hill software) and validated by comparison with data generated by the commercial software SigmaPlot® 4.0 for Windows® (© 1997 by SPSS Inc.).
In Vitro Pharmacology. Results showing an inhibition (or stimulation for assays run in basal conditions) higher than 50% were considered to represent significant effects of the test compounds. Results showing an inhibition (or stimulation) between 25% and 50% are indicative of weak to moderate effects. Results showing an inhibition (or stimulation) lower than 25% were not considered significant and mostly attributable to variability of the signal around the control level. […]

[3] = Metabolic stability in human intestinal homogenate; format: in vitro ADME; settings: Human intestinal homogenates; for half-life at 1 μM / microsomal CLint at 1 μM: intestinal homogenate, pH 7.2; for microsomal CLint at 1 μM: read-out: CLint(mic.)
Procedure: Incubation Buffer (PBK): 50 mM potassium phosphate buffer (PBK) was prepared from 1 M potassium phosphate buffer, pH 7.2. […] The dilution of 1 mM intermediate was prepared from 10 mM stock with 90% methanol/water, then […] working solutions were prepared by diluting the 1 mM intermediates with 50 mM PBK. […] Prior to use, the stock solutions were brought to room temperature and thoroughly mixed. […] Cofactors Solutions: the cofactor solution was made at 10 mM of NADPH (nicotinamide-adenine dinucleotide phosphate, reduced form) in 50 mM PBK buffer.
as §1, with “intestinal homogenate mixture solution was” for “liver S9 working solutions were”, “solution at” for “mixture”, “µL/well.” for “μL/well.”
At specified time points, i.e., 5, 10, 20, 30 and 60 minutes, NCF60 (no cofactor at 60 min, without adding NADPH replaced with 50 mM PBK buffer) reaction was stopped by adding three volumes of stop solution. The time zero (To) samples were prepared by adding three volumes of stop solution to intestinal homogenate samples, followed by addition of test article or control, and cofactor solution 10 μL/well.
Subsequently, 100 μL of supernatant was removed from each well, diluted with 100 μL pure water and analyzed by LC/MS/MS.
A study was conducted to examine the metabolic stability. […] Positive controls: 7-hydroxycoumarin and Testosterone.

[4] = In vitro stability in human plasma; format: in vitro ADME; settings: Human plasma, final concentration 2 μM
Procedure: Test Article Solutions: COMPOUND A, COMPOUND B and COMPOUND C stock solutions at 10 mM were prepared in dimethyl sulfoxide (DMSO). Further dilution with DMSO was made to prepare 2.0 mM. The working solutions of 50 μM was prepared with 20% MeOH/water. […] Prior to use, the stock solutions were brought to room temperature and thoroughly mixed and prepared same as described above.
Incubations were conducted in 96-well plate format. The time points defined for this study are 0, 5, 15, 30 and 60 minutes.
An appropriate volume of plasma from test species were added to a 96-deep well plate, and COMPOUND A, COMPOUND B and COMPOUND C working solution was spiked into the plasma in duplicate to achieve a final concentration of 2.0 μM. For positive controls, the rat plasma was spiked with enalapril, the dog plasma spiked with bisacodyl and the human plasma was spiked with propantheline. All spiked plasma sample plates were incubated in a water bath at 37° C. with shaking.
At the end of each time point, samples were immediately quenched with three volume of cold quenching solution.
A study was conducted to examine the plasma stability. Test Compounds: COMPOUND D, COMPOUND E, and Viloxazine. Positive controls: Enalapril and Propantheline.

Row | Compound | % Remaining at 60 min [1] | half-life at 1 μM [1] | microsomal CLint at 1 μM [1] | IC50 [2] | % Remaining at 60 min [3] | half-life at 1 μM [3] | microsomal CLint at 1 μM [3] | % Remaining at 60 min (Mean) [4]
1 | CCOc1ccccc1OCC1CN(C(=O)OC(C)OC(=O)[C@H](N)C(C)C)CCO1 (stereo partly shown) [COMPOUND D] | 0.48% | 9.4 min | 148 µL/min/mg | 870 nM | 0.00% | 0.85 min | 1630 µL/min/mg | 77.1%
2 | CCOc1ccccc1OCC1CN(C(=O)OC(OC(=O)[C@@H](N)C(C)C)C(C)C)CCO1 (stereo partly shown) [COMPOUND E] | 0.00% | 4.8 min | 290 µL/min/mg | 2600 nM | 0.90% | 10.8 min | 128 µL/min/mg | 90.3%
